How the values were obtained:
Assay type in all cases: in vivo
Sphaerotheca fuliginea = assay: whole plant or invertebrate; conditions: for % Efficacy: in vivo
[1] = test system: Erysiphe graminis f.sp. hordei; assay: Erysiphe test (barley)/protective; conditions: Blumeria graminis, 168 h, protective, application rate 12.5 g/ha, evaluation 7 days after inoculation, read-out: Efficacy in %
Procedure: Erysiphe Test (Barley)/Protective
(§1) To produce a suitable preparation of active compound, 1 part by weight of active compound or active compound combination is mixed with the stated amounts of solvent and emulsifier, and the concentrate is diluted with water to the desired concentration.
To test for protective activity, young plants are sprayed with the preparation of active compound at the stated application rate.
After the spray coating has dried on, the plants are dusted with spores of Erysiphe graminis f.sp. hordei.
The plants are placed in a greenhouse at a temperature of approximately 20° C. and a relative atmospheric humidity of approximately 80% to promote the development of mildew postules.
(§2) Evaluation is carried out 7 days after the inoculation. 0% means an efficacy which corresponds to that of the control, whereas an efficacy of 100% means that no infection is observed.

Pyrenophora teres = Pyrenophora teres test (barley)/protective; conditions: protective, application rate 25 g/ha, evaluation 7 days after inoculation
Procedure: Pyrenophora teres Test (Barley)/Protective
as §1
To test for protective activity, young plants are sprayed with the preparation of active compound at the stated application rate. After the spray coating has dried on, the plants are sprayed with a conidia suspension of Pyrenophora teres. The plants remain in an incubation cabin at 20° C. and 100% relative atmospheric humidity for 48 hours.
The plants are then placed in a greenhouse at a temperature of approximately 20° C. and a relative atmospheric humidity of approximately 80%.
as §2

Phytophthora infestans = assay: whole plant or invertebrate
Leptosphaeria nodorum = Leptosphaeria nodorum test (wheat)/protective; conditions: protective, application rate 25 g/ha, evaluation 10 days after inoculation
Procedure: Leptosphaeria nodorum Test (Wheat)/Protective
To produce a suitable preparation of active compound, 1 part by weight of active compound or active compound combination is mixed with the stated amounts of solvents and emulsifier, and the concentrate is diluted with water to the desired concentration.
To test for protective activity, young plants are sprayed with the preparation of active compound at the stated application rate. After the spray coating has dried on, the plants are sprayed with a spore suspension of Leptosphaeria nodorum. The plants remain in an incubation cabin at 20° C. and 100% relative atmospheric humidity for 48 hours.
The plants are placed in a greenhouse at a temperature of approximately 15° C. and a relative atmospheric humidity of 80%.
Evaluation is carried out 10 days after the inoculation. 0% means an efficacy which corresponds to that of the control, whereas an efficacy of 100% means that no infection is observed.

[2] = Podosphaera fuliginea, in Cucumis sativus, 240 h, read-out: % Efficacy
[3] = Phytophthora infestans, in Solanum lycopersicum, 72 h, read-out: % Efficacy

## N=C(N)NCCCCCCCCNCCCCCCCCNC(=N)N [(XIX) (18), N,N′″-(iminodi-8,1-octanediyl)bis-guanidine triacetate]
Sphaerotheca fuliginea; [2]
  pest or weed control at 2.5 g/ha: 43%

## OC(Cc1ccccc1Cl)(Cn1nc[nH]c1=S)C1(Cl)CC1 (stereo not shown) [Compound of the formula (LXX) (69), 2-(1-chloro-cyclopropyl)-1-(2-chlorophenyl)-3-(5-mercapto-1,2,4-triazol-1-yl)-propan-2-ol]
[1]
  pest or weed control at 12.5 g/ha: 90%
Pyrenophora teres
  Efficacy in %: 70%
Phytophthora infestans; [3]
  pest or weed control at 5 g/ha: 0%

## Cc1noc(C)c1S(=O)(=O)n1c(Cl)nc2cc3c(cc21)OC(F)(F)O3 [Compound of the formula (LXXI) (70), 1-(3,5-dimethylisoxazole-4-sulphonyl)-2-chloro-6,6-difluoro-[1,3]-dioxolo-[4,5f]benzimidazole]
[1]
  pest or weed control at 12.5 g/ha: 0%
Leptosphaeria nodorum
  Efficacy in %: 0%
Sphaerotheca fuliginea; [2]
  pest or weed control at 1 g/ha: 0%

## CCC1(C(=O)NC(C)c2ccc(Cl)cc2)C(C)C1(Cl)Cl (stereo not shown) [N-[1-(4-chloro-phenyl)-ethyl]-2,2-dichloro-1-ethyl-3-methyl-cyclopropane-carboxamide]
Sphaerotheca fuliginea; [2]
  pest or weed control at 5 g/ha: 10%

## CO/C=C(/C(=O)OC)c1ccccc1Oc1cc(Oc2ccccc2C#N)ncn1 [azoxystrobin (XVII) (16), azoxystrobin]
Sphaerotheca fuliginea; [2]
  pest or weed control at 1 g/ha: 37%

## CCCCNC(=O)n1c(NC(=O)OC)nc2ccccc21 [benomyl (LXXXIII) (30), benomyl]
Sphaerotheca fuliginea; [2]
  pest or weed control at 5 g/ha: 50%

## O=C1C2CC=CCC2C(=O)N1SC(Cl)(Cl)Cl (stereo not shown) [captan (LV) (54), captan]
Phytophthora infestans; [3]
  pest or weed control at 40 g/ha: 0%

## COC(=O)Nc1nc2ccccc2[nH]1 [carbendazim (XXXI) (30), carbendazim]
Sphaerotheca fuliginea; [2]
  pest or weed control at 2.5 g/ha: 63%

## Cc1ccc2nc3sc(=O)sc3nc2c1 [chinomethionat]
Phytophthora infestans; [3]
  pest or weed control at 20 g/ha: 0%

## [Cl-].[Cu+2].[Cu+2].[OH-].[OH-].[OH-] [copper oxychloride (LXIV) (63), copper oxychloride]
Sphaerotheca fuliginea
  % Efficacy: 11%

## Cc1ccc(-c2c(Cl)nc(C#N)n2S(=O)(=O)N(C)C)cc1 [cyamidazosulfamid (LXX IV)(73), cyamidazosulfamid]
Phytophthora infestans; [3]
  pest or weed control at 0.5 g/ha: 45%
Sphaerotheca fuliginea; [2]
  pest or weed control at 1 g/ha: 0%

## CCNC(=O)NC(=O)C(C#N)=NOC [cymoxanil (XLVI) (45), cymoxanil]
Phytophthora infestans; [3]
  pest or weed control at 2.5 g/ha: 0%
Sphaerotheca fuliginea; [2]
  pest or weed control at 5 g/ha: 15%

## Cc1cc(C2CC2)nc(Nc2ccccc2)n1 [cyprodinil (XVIII) (17), cyprodinil]
[1]
  pest or weed control at 12.5 g/ha: 0%
Pyrenophora teres
  Efficacy in %: 0%
Sphaerotheca fuliginea; [2]
  pest or weed control at 10 g/ha: 22%

## CC1COC(Cn2cncn2)(c2ccc(Oc3ccc(Cl)cc3)cc2Cl)O1 (stereo not shown) [difenoconazole]
Phytophthora infestans; [3]
  pest or weed control at 5 g/ha: 5%
Sphaerotheca fuliginea; [2]
  pest or weed control at 5 g/ha: 14%

## COc1ccc(C(=CC(=O)N2CCOCC2)c2ccc(Cl)cc2)cc1OC [dimetomorph (XLV) (44), dimetomorph]
Phytophthora infestans; [3]
  pest or weed control at 1 g/ha: 23%
Sphaerotheca fuliginea; [2]
  pest or weed control at 1 g/ha: 0%

## CSC1=N[C@@](C)(c2ccccc2)C(=O)N1Nc1ccccc1 [fenamidone]
Phytophthora infestans; [3]
  pest or weed control at 0.5 g/ha: 48%
Sphaerotheca fuliginea; [2]
  pest or weed control at 0.5 g/ha: 0%

## CC1(C(=O)Nc2ccc(O)c(Cl)c2Cl)CCCCC1 [fenhexamid (LII) (51), fenhexamid]
Sphaerotheca fuliginea; [2]
  pest or weed control at 5 g/ha: 10%

## N#Cc1c[nH]cc1-c1cccc(Cl)c1Cl [fenpiclonil (XXVIII) (27), 4-(2,3-dichlorophenyl)-1H-pyrrole-3-carbonitrile]
Sphaerotheca fuliginea; [2]
  pest or weed control at 2.5 g/ha: 0%

## O=[N+]([O-])c1cc(C(F)(F)F)c(Cl)c([N+](=O)[O-])c1Nc1ncc(C(F)(F)F)cc1Cl [fluazinam]
Phytophthora infestans; [3]
  pest or weed control at 2.5 g/ha: 32%
Sphaerotheca fuliginea; [2]
  pest or weed control at 2.5 g/ha: 0%

## N#Cc1c[nH]cc1-c1cccc2c1OC(F)(F)O2 [fludioxonil (XXX) (29), fludioxonil]
[1]
  pest or weed control at 12.5 g/ha: 0%
Sphaerotheca fuliginea; [2]
  pest or weed control at 2.5 g/ha: 0%

## O=C1c2ccccc2C(=O)N1SC(Cl)(Cl)Cl [folpet]
Sphaerotheca fuliginea; [2]
  pest or weed control at 40 g/ha: 0%

## O=[N+]([O-])/N=C1\NCCN1Cc1ccc(Cl)nc1 [imidacloprid (XXIV) (23), 1-[(6-chloro-3-pyridinyl)-methyl]-N-nitro-2-imidazolidinimine]
[1]
  pest or weed control at 12.5 g/ha: 0%

## CC(C)NC(=O)N1CC(=O)N(c2cc(Cl)cc(Cl)c2)C1=O [iprodione (LXV) (64), iprodione]
Sphaerotheca fuliginea; [2]
  pest or weed control at 5 g/ha: 0%

## Cc1ccc(C(C)NC(=O)[C@@H](NC(=O)OC(C)C)C(C)C)cc1 (stereo partly shown) [iprovalicarb (LI) (50), iprovalicarb]
Phytophthora infestans; [3]
  pest or weed control at 0.5 g/ha: 2%
Sphaerotheca fuliginea; [2]
  pest or weed control at 2 g/ha: 0%

## CO/N=C(/C(=O)OC)c1ccccc1COc1ccccc1C [kresoxim-methyl (XVI) (15), kresoxim-methyl]
Phytophthora infestans; [3]
  pest or weed control at 1 g/ha: 35%
Sphaerotheca fuliginea; [2]
  pest or weed control at 2 g/ha: 0%

## CC#Cc1cc(C)nc(Nc2ccccc2)n1 [mepanipyrim (L) (49), mepanipyrim]
Phytophthora infestans; [3]
  pest or weed control at 5 g/ha: 0%
Sphaerotheca fuliginea; [2]
  pest or weed control at 10 g/ha: 11%

## COCC(=O)N(c1c(C)cccc1C)C(C)C(=O)OC (stereo not shown) [metalaxyl (XXVII)(26), metalaxyl]
Sphaerotheca fuliginea; [2]
  pest or weed control at 1 g/ha: 11%

## O=C(Nc1ccccc1)N(Cc1ccc(Cl)cc1)C1CCCC1 [pencycuron (XXXVIII) (37), pencycuron]
[1]
  pest or weed control at 12.5 g/ha: 50%
Phytophthora infestans; [3]
  pest or weed control at 10 g/ha: 14%
Sphaerotheca fuliginea; [2]
  pest or weed control at 5 g/ha: 30%

## CO/C=C(/C(=O)OC)c1ccccc1COc1cccc(C(F)(F)F)n1 [picoxystrobin (LXXXIII) (82), picoxystrobin]
Sphaerotheca fuliginea; [2]
  pest or weed control at 2 g/ha: 0%

## CCCN(CCOc1c(Cl)cc(Cl)cc1Cl)C(=O)n1ccnc1 [prochloraz (XXI) (20), prochloraz]
Phytophthora infestans; [3]
  pest or weed control at 10 g/ha: 0%

## CC12CC1(C)C(=O)N(c1cc(Cl)cc(Cl)c1)C2=O (stereo not shown) [procymidone (XLII) (41), procymidone]
Sphaerotheca fuliginea; [2]
  pest or weed control at 5 g/ha: 0%

## Cc1cc(C)nc(Nc2ccccc2)n1 [pyrimethanil (XLIX)(48), pyrimethanil]
Phytophthora infestans; [3]
  pest or weed control at 10 g/ha: 11%
Sphaerotheca fuliginea; [2]
  pest or weed control at 5 g/ha: 11%

## CCCN(CC)CC1COC2(CCC(C(C)(C)C)CC2)O1 (stereo not shown) [spiroxamine (II) (1), 8-t-butyl-2-(N-ethyl-N-n-propyl-amino)-methyl-1,4-dioxaspiro-[5,4]-decane]
Phytophthora infestans; [3]
  pest or weed control at 10 g/ha: 0%
Sphaerotheca fuliginea; [2]
  pest or weed control at 5 g/ha: 0%

## S1SSSSSSS1 [sulphur (LXII) (62), sulphur]
Phytophthora infestans; [3]
  pest or weed control at 25 g/ha: 0%
Sphaerotheca fuliginea; [2]
  pest or weed control at 25 g/ha: 0%

## N#Cc1c(Cl)c(Cl)c(Cl)c(C#N)c1Cl [tetrachloro-isophthalo-dinitrile]
Sphaerotheca fuliginea; [2]
  pest or weed control at 40 g/ha: 0%

## Cc1ccc(N(SC(F)(Cl)Cl)S(=O)(=O)N(C)C)cc1 [tolylfluanid]
Sphaerotheca fuliginea; [2]
  pest or weed control at 40 g/ha: 0%

## CC(C)(C)C(=O)C(Oc1ccc(Cl)cc1)n1cncn1 (stereo not shown) [triadimefon (IX) (8), 1-(4-chloro-phenoxy)-3,3-dimethyl-1-(1,2,4-triazol-1-yl)-butan-2-one]
Sphaerotheca fuliginea; [2]
  pest or weed control at 10 g/ha: 0%

## CC(C)(C)C(O)C(Oc1ccc(Cl)cc1)n1cncn1 (stereo not shown) [triadimenol (X) (9), 1-(4-chloro-phenoxy)-3,3-dimethyl-1-(1,2,4-triazol-1-yl)-butan-2-ol]
Pyrenophora teres
  Efficacy in %: 30%
Phytophthora infestans; [3]
  pest or weed control at 5 g/ha: 0%
Sphaerotheca fuliginea; [2]
  pest or weed control at 2.5 g/ha: 0%

## CO/N=C(/C(=O)OC)c1ccccc1CO/N=C(\C)c1cccc(C(F)(F)F)c1 [trifloxystrobin (LXXVI) (75), trifloxystrobin]
Sphaerotheca fuliginea; [2]
  pest or weed control at 2 g/ha: 43%

## C=CC1(C)OC(=O)N(c2cc(Cl)cc(Cl)c2)C1=O (stereo not shown) [vinclozolin]
Sphaerotheca fuliginea; [2]
  pest or weed control at 5 g/ha: 10%

## CCC(C)(NC(=O)c1cc(Cl)c(C)c(Cl)c1)C(=O)CCl (stereo not shown) [zoxamide (LXXIII)(72), zoxamide]
Phytophthora infestans; [3]
  pest or weed control at 1 g/ha: 19%
Sphaerotheca fuliginea; [2]
  pest or weed control at 1 g/ha: 0%

## dichlofluanid
Sphaerotheca fuliginea
  % Efficacy: 0%

## mancozeb [mancozeb (XLIII) (42)]
Phytophthora infestans; in vivo
  % Efficacy: 23%

Source: US20030229087A1 (priority 2002, published 2003)
